According to patent US8318762B2, “Pyrazolospiroketone acetyl-CoA carboxylase inhibitors” (Pfizer Inc., priority 2008, dated 2012):

Legend:
rat liver ACC = rat liver ACC (Rattus norvegicus, UniProt P11497); assay type: biochemical; details: rat liver ACC radio enzymatic assay
Protocol: [1] Preparation of rat liver ACC. Rat liver ACC was obtained from rat liver based upon standard procedures such as those described by Thampy and Wakil (J. Biol. Chem. 260: 6318-6323; 1985) using the following method.
Male CD rats weighing 150-200 g were fasted for 18-24 hours and then fed a high sucrose diet (AIN-76A rodent diet; Cat # D10001, Research Diets Inc., New Brunswick, N.J.), for 3 days at which time they were sacrificed by CO2 asphyxiation. The livers were removed, rinsed in ice-cold phosphate-buffered saline (PBS), and homogenized in 5 volumes of homogenization buffer (50 mM potassium phosphate, pH 7.5, 10 mM EDTA, 10 mM 2-mercaptoethanol, 2 mM benzamidine, 0.2 mM phenylmethylsulfonylfluoride (PMSF), 5 mg/L each leupeptin, aprotinin, and antitrypsin) in a Waring® blender for 1 minute at 4° C. All subsequent operations were carried out at 4° C. The homogenate has made 3% with respect to polyethylene glycol (PEG) by the addition of 50% PEG solution and centrifuged at 20,000×g for 15 minutes. The resulting supernatant was adjusted to 5% PEG with the addition of 50% PEG solution and stirred for 5 minutes. The pellet (contains ACC activity) was collected by centrifugation at 20,000×g for 20 minutes, rinsed with ice-cold doubly distilled water to remove excess PEG and re-suspended in one-fourth the original homogenate volume with homogenization buffer. Ammonium sulfate (200 g/liter) was slowly added with stirring. After 45 minutes the enzyme is collected by centrifugation for 30 minutes at 20,000×g, re-suspended in 10 mL of 50 mM HEPES, pH7.5, 0.1 mM DTT, 1.0 mM EDTA, and 10% glycerol and desalted on a Sephadex™ G-25 column (2.5 cm×50 cm) (Pharmacia, Piscataway N.J. now GE Healthcare) equilibrated with the same buffer. The desalted enzyme preparation was stored in aliquots at −70° C. Immediately prior to use, frozen rat liver ACC aliquots were thawed, diluted to 500 μg/mL in buffer containing 50 mM HEPES, pH7.5, 10 mM MgCl2, 10 mM tripotassium citrate, 2.0 mM dithiothreitol (DTT), and 0.75 mg/mL fatty acid-free bovine serum albumin (BSA) and pre-incubated at 37° C. for 30 minutes.
[2] Measurement of rat liver ACC inhibition. For measurement of ACC activity and assessment of ACC inhibition, test compounds were dissolved in dimethylsulfoxide (DMSO) and 1 μL aliquots were added to a clear bottom, 96-well plates (Perkin-Elmer PN#1450-514). Control wells contain 1 μL of DMSO alone or 1 μL of high inhibition compound. The enzyme obtained from rat liver as described above was activated in Enzyme buffer at 37° C. for 30 minutes prior to addition to compound plate. All wells receive 75 μL of activated enzyme (1.33×) in a buffer containing 50 mM HEPES, pH7.5, 7.5 mM MgCl2 7.5 mM tripotassium citrate, 2 mM DTT, 50 mg/mL BSA. The activated enzyme was pre-incubated with the cmpd for 10 minute prior to initiating the reaction through the addition of 25 μL of substrate solution containing 50 mM HEPES, pH7.5, 7.5 mM MgCl2 7.5 mM tripotassium citrate, 2 mM DTT, 50 mg/mL BSA, 120 μM acetyl-CoA, 8.0 mM ATP, 38.4 mM KHCO3, and 1.6 mM NaH[^14C]O3 ([…]). The final substrate concentrations in the reaction were 30 μM Acetyl-CoA, 9.6 mM KHCO3, 0.4 mM NaH[^14C]O3, and 2 mM ATP. The reaction was terminated after 10 mins by the addition of 25 μL 3N HCl and the plates were dried at 50° C. for a minimum 20 hrs. 30 μL of water was added to the dried plate and mixed for 5 minutes. 95 μL of Optiphase Supermix liquid scintillation fluid (Perkin Elmer, Waltham, Mass.) was added and the plates are mixed for 20 minutes. Incorporation of ^14C into MCoA was measured using a Wallac Trilux 1450 Microbeta LSC luminescence counter.

recombinant human ACC2 = biological target: T1, recombinant human ACC2 (Homo sapiens, UniProt O00763); experiment: Measurement of human ACC2 inhibition (recombinant hACC2 Transcreener ADP detection FP assay); assay type: biochemical; details: recombinant hACC2 transcreener assay; read-out: rhACC2 IC50
T1 construct: a full length Cytomax clone of ACC2 was purchased from Cambridge Bioscience Limited; made in house; host or cells: CHO cells (tetracycline induction, pcDNA5 FRT TO-TOPO); purified on a Softlink Soft Release Avidin column
Procedure, shortened: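 Purified hACC2 from tetracycline-induced CHO cells (avidin-column eluate) was run in 50 mM HEPES pH7.5, 5 mM MgCl2, 5 mM citrate, 2 mM DTT, 0.5 mg/mL BSA with 30 μM acetyl-CoA, 50 μM ATP and 8 mM KHCO3. Reaction lasted 1 hour at room temperature; ADP was detected by Transcreener FP after another 1 hour.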

[1] = test system: malonyl-CoA levels in liver; experiment: Acute in vivo assessment of ACC inhibition: malonyl-CoA levels in liver tissue; set-up: species or system male Sprague-Dawley Rats; details: relative to chow-fed vehicle control group, % decrease +/- SEM
Protocol: (§1) The ACC inhibitory activity of the compound of the present invention can be confirmed in vivo by evaluation of their ability to reduce malonyl-CoA levels in liver and muscle tissue from treated animals.
(§2) Measurement of malonyl-CoA production inhibition in experimental animals. In this method, male Sprague-Dawley Rats, maintained on standard chow and water ad libitum (225-275 g), were randomized prior to the study. Animals were either fed, or fasted for 18 hours prior to the beginning of the experiment. Two hours into the light cycle the animals were orally dosed with a volume of 5 mL/kg, (0.5% methyl cellulose; vehicle) or with the appropriate compound (prepared in vehicle). Fed vehicle controls were included to determine baseline tissue malonyl-CoA levels while fasted animals were included to determine the effect fasting had on malonyl-CoA levels. One hour after compound administration the animals were asphyxiated with CO2 and the tissues were removed. Specifically, blood was collected by cardiac puncture and placed into BD Microtainer tubes containing EDTA (BD Biosciences, NJ), mixed, and placed on ice. Plasma was used to determine drug exposure. Liver and quadriceps were removed, immediately freeze-clamped, wrapped in foil and stored in liquid nitrogen.
(§3) Tissues were pulverized under liquid N2 to ensure uniformity in sampling. Malonyl-CoA was extracted from the tissue (150-200 mg) with 5 volumes 10% […] in Lysing Matrix A (MP Biomedicals, PN 6910) in a FastPrep FP120 (Thermo Scientific, speed=5.5; for 45 seconds). The supernatant containing malonyl-CoA was removed from the cell debris after centrifugation at 15000×g for 30 minutes (Eppendorf Centrifuge 5402). Samples were stably frozen at −80 C until analysis is completed.
(§4) Analysis of malonyl CoA levels in liver and muscle tissue can be evaluated using the following methodology.
(§5) The method utilizes the following materials: Malonyl-CoA tetralithium salt and malonyl-^13C3-CoA trilithium salt which were purchased from Isotec (Miamisburg, Ohio, USA), sodium perchlorate (Sigma, cat no. 410241), trichloroacetic acid (ACROS, cat no. 42145), phosphoric acid (J. T. Baker, cat no. 0260-01), ammonium formate (Fluke, cat no. 17843), methanol (HPLC grade, J. T. Baker, cat no. 9093-33), and water (HPLC grade, J. T. Baker, 4218-03) were used to make the necessary mobile phases. Strata-X on-line solid phase extraction columns, 25 μm, 20 mm×2.0 mm I.D (cat no. 00M-S033-B0-CB) were obtained from Phenomenex (Torrance, Calif., USA). SunFire C18 reversed-phase columns, 3.5 μm, 100 mm×3.0 mm I.D. (cat no. 186002543) were purchased from Waters Corporation (Milford, Mass., USA).
(§6) This method may be performed utilizing the following equipment. Two-dimensional chromatography using an Agilent 1100 binary pump, an Agilent 1100 quaternary pump and two Valco Cheminert 6-port two position valves. Samples were introduced via a LEAP HTC PAL auto sampler with Peltier cooled stack maintained at 10° C. and a 20 μL sampling loop. The needle wash solutions for the autosampler are 10% trichloroacetic acid in water (w/v) for Wash 1 and 90:10 methanol:water for Wash 2. The analytical column (Sunfire) was maintained at 35° C. using a MicroTech Scientific Micro-LC Column Oven. The eluant was analyzed on an ABI Sciex API3000 triple quadrupole mass spectrometer with Turbo Ion Spray.
(§7) Two-dimensional chromatography was performed in parallel using distinct gradient elution conditions for on-line solid phase extraction and reversed-phase chromatography. The general design of the method was such that the first dimension was utilized for sample clean-up and capture of the analyte of interest followed by a brief coupling of both dimensions for elution from the first dimension onto the second dimension. The dimensions were subsequently uncoupled allowing for gradient elution of the analyte from the second dimension for quantification while simultaneously preparing the first dimension for the next sample in the sequence. […]

[2] = test system: malonyl-CoA levels in muscle tissue; experiment: Acute in vivo assessment of ACC inhibition: malonyl-CoA levels in muscle tissue (quadriceps); set-up: species or system male Sprague-Dawley Rats; details: relative to chow-fed vehicle control group, % decrease +/- SEM
Protocol: as §1, §2, §3, §4, §5, §6, §7

T1 sequence (O00763 whole entry): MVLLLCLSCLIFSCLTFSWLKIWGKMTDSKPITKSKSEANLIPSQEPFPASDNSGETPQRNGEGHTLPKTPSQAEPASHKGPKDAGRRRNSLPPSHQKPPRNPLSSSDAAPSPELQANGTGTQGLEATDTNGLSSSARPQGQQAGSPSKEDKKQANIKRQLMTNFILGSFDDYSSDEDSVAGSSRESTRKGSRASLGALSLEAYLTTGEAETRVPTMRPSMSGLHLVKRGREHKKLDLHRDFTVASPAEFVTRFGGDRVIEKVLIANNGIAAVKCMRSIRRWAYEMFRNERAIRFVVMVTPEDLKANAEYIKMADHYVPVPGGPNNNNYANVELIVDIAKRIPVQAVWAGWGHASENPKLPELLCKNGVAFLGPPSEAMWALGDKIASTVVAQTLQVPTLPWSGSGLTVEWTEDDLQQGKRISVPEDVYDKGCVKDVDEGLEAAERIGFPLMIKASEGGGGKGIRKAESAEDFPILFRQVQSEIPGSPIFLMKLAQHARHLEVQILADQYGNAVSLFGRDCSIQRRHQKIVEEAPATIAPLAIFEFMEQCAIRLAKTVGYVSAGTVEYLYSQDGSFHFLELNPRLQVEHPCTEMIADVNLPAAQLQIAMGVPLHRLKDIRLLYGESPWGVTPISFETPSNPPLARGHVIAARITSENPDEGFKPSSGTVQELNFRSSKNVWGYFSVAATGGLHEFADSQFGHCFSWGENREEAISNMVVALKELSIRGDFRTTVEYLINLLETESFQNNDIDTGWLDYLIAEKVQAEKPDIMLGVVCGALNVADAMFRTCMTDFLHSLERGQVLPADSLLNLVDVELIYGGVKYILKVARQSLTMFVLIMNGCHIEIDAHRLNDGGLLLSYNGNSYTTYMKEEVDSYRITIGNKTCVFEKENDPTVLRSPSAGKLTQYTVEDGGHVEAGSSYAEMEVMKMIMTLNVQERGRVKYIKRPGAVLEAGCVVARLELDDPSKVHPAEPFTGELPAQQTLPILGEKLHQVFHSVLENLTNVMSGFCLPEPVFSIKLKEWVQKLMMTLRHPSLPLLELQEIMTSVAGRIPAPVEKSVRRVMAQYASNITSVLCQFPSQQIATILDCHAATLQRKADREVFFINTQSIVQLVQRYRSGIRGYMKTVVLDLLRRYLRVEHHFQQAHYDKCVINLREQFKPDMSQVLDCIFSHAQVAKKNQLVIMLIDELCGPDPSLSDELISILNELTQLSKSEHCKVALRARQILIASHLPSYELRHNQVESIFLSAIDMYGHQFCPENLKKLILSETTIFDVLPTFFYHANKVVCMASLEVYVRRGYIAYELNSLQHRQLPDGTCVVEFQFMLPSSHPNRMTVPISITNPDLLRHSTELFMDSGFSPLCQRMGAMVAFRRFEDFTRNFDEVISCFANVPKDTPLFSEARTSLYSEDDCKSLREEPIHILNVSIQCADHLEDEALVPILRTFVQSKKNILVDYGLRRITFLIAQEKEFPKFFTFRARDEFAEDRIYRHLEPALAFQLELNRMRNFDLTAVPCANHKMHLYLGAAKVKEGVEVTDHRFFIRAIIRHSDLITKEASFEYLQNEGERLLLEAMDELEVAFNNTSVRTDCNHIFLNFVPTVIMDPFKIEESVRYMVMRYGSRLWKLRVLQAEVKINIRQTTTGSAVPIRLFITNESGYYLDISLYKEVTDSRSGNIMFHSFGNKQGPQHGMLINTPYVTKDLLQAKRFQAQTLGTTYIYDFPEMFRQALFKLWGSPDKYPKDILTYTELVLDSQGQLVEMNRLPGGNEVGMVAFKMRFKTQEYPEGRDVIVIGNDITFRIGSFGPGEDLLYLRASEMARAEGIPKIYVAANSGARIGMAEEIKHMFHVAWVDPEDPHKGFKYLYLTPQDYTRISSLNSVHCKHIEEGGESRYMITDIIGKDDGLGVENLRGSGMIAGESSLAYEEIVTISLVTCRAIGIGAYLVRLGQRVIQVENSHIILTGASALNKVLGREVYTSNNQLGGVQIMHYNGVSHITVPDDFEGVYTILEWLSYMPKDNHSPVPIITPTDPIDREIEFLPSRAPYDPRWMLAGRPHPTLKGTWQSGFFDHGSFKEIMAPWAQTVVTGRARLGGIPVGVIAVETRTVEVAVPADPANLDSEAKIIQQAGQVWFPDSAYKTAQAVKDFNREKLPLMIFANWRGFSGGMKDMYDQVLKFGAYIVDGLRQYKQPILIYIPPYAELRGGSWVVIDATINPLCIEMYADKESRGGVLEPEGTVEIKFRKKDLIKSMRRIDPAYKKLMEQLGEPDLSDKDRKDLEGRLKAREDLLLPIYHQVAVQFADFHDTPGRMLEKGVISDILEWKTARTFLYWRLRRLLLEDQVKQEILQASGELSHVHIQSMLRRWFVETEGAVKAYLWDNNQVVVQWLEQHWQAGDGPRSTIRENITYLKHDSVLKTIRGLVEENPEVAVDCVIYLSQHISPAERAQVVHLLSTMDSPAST

Row | IC50 (rat liver ACC) [nM] | IC50 (recombinant human ACC2) [nM] | SMILES | also measured
1 | 21 | 20 | Cc1n[nH]c2c(C)cc(C(=O)N3CCC4(CC3)CC(=O)c3nn(C5CCOC5)c(C)c3O4)cc12 (centres unmarked) [1.015] | 
2 | 22 | 28 | Cc1cc(C(=O)N2CCC3(CC2)CC(=O)c2nn(C(C)C)cc2O3)cc2cn[nH]c12 [1.022] | 
3 | 28 | 31 | CCn1nc2c(c1C)OC1(CCN(C(=O)c3cc(C)c4[nH]ncc4c3)CC1)CC2=O [1.023] | 
4 | 48 | 43 | CCCn1cc2c(n1)C(=O)CC1(CCN(C(=O)c3cc(C)c4[nH]ncc4c3)CC1)O2 [1.027] | 
5 | 14 | 9 | Cc1cc(C(=O)N2CCC3(CC2)CC(=O)c2nn(C4CCCC4)cc2O3)cc2cn[nH]c12 [1.038] | 
6 | 15 | 13 | Cc1cc(C(=O)N2CCC3(CC2)CC(=O)c2nn(C4CCC4)cc2O3)cc2cn[nH]c12 [1.039] | 
7 | 17 |  | CC(C)(C)n1cc2c(n1)C(=O)CC1(CCN(C(=O)c3ccc4[nH]ncc4c3)CC1)O2 [1.074] | Percent decrease in Liver Malonyl-CoA ([1]; dose 1 mg/kg): 34.97 (2.59) %; Percent decrease in Liver Malonyl-CoA ([1]; dose 3 mg/kg): 53.97 (1.19) %; Percent decrease in Liver Malonyl-CoA ([1]; dose 10 mg/kg): 70.74 (3.49) %; Percent decrease in Liver Malonyl-CoA ([1]; dose 30 mg/kg): 63.60 (3.57) %; Percent decrease in Muscle Malonyl-CoA (quadriceps) ([2]; dose 1 mg/kg): 2.34 (5.44) %; Percent decrease in Muscle Malonyl-CoA (quadriceps) ([2]; dose 3 mg/kg): 24.42 (6.83) %; Percent decrease in Muscle Malonyl-CoA (quadriceps) ([2]; dose 10 mg/kg): 49.00 (2.40) %; Percent decrease in Muscle Malonyl-CoA (quadriceps) ([2]; dose 30 mg/kg): 57.06 (2.04) %
8 | 13 | 18 | CCOc1cc(C(=O)N2CCC3(CC2)CC(=O)c2nn(CC)c(C)c2O3)cc2c(CC)n[nH]c12 [1.119] | 
9 | 16 | 14 | CCOc1cc(C(=O)N2CCC3(CC2)CC(=O)c2nn(C(C)C)cc2O3)cc2cn[nH]c12 [1.123] | 
10 | 17 | 9 | CCC(C)n1nc2c(c1C)OC1(CCN(C(=O)c3ccc4[nH]nc(C)c4c3)CC1)CC2=O (centres unmarked) [1.137] | 
11 | 32 | 19 | CCC(C)n1cc2c(n1)C(=O)CC1(CCN(C(=O)c3ccc4[nH]nc(C)c4c3)CC1)O2 (centres unmarked) [1.141] | 
12 | 15 | 49 | Cc1c(C(=O)N2CCC3(CC2)CC(=O)c2nn(C(C)(C)C)cc2O3)ccc2[nH]ncc12 [1.147] | 
13 | 10 | 4 | Cc1nc2c(C)cc(C(=O)N3CCC4(CC3)CC(=O)c3nn(C(C)(C)C)cc3O4)cc2[nH]1 [3.003] | 
14 | 9 | 29 | CCn1nc2c(c1C)OC1(CCN(C(=O)c3cc(C)c4[nH]cc(C)c4c3)CC1)CC2=O [4.001] | 
15 | 201 | 147 | CC(C)n1cc2c(n1)C(=O)CC1(CCN(C(=O)c3ccc4cn(C)nc4c3)CC1)O2 [5.002] | 
16 | 77 | 38 | COc1ccc2cc(C(=O)N3CCC4(CC3)CC(=O)c3nn(C(C)(C)C)cc3O4)ccc2c1 [6.004] | 
17 | 46 | 25 | CC(C)(C)n1cc2c(n1)C(=O)CC1(CCN(C(=O)c3ccc4ncsc4c3)CC1)O2 [10.002] | 
